9 molecules from ChEMBL document CHEMBL1144228, “Isoxazolo[3,4-b]quinoline-3,4(1H,9H)-diones as unique, potent and selective inhibitors for Pim-1 and Pim-2 kinases: chemistry, biological activities, and molecular modeling” (Bioorg Med Chem Lett, 2008) can be followed below.

Assay [1] deals with Serine/threonine-protein kinase pim-1 (Homo sapiens, UniProt P11309). The experiment in a line: Inhibition of Pim1.
Assay [2] has as its target Serine/threonine-protein kinase pim-2 (Homo sapiens, UniProt Q9P1W9). The experiment in a line: Inhibition of Pim2.
Assay [3] has as its target T1, 5'-AMP-activated protein kinase subunit beta-1 (Homo sapiens, UniProt Q9Y478).
T1 sequence (Q9Y478 whole entry): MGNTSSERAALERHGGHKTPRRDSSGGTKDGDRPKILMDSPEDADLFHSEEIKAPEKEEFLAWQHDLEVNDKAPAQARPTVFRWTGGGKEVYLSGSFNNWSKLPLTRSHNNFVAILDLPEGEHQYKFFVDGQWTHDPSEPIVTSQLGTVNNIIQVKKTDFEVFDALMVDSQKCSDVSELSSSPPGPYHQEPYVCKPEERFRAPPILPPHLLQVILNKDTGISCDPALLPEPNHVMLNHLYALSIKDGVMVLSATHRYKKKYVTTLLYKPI
The assay can be described thus: Inhibition of AMPK.

The nature of assay [4]: Inhibition of Aurora1.
Assay [5] can be described thus: Inhibition of Aurora2.
Assay [6] is described as follows: Inhibition of Casein kinase 2.
The target in assay [7] is Serine/threonine-protein kinase MARK1 (Homo sapiens, UniProt Q9P0L2). The experiment in a line: Inhibition of MARK.
Assay [8] can be described thus: Inhibition of PKA.
In assay [9] the target is T2, Protein kinase C iota type (Homo sapiens, UniProt P41743).
T2 sequence (P41743 whole entry): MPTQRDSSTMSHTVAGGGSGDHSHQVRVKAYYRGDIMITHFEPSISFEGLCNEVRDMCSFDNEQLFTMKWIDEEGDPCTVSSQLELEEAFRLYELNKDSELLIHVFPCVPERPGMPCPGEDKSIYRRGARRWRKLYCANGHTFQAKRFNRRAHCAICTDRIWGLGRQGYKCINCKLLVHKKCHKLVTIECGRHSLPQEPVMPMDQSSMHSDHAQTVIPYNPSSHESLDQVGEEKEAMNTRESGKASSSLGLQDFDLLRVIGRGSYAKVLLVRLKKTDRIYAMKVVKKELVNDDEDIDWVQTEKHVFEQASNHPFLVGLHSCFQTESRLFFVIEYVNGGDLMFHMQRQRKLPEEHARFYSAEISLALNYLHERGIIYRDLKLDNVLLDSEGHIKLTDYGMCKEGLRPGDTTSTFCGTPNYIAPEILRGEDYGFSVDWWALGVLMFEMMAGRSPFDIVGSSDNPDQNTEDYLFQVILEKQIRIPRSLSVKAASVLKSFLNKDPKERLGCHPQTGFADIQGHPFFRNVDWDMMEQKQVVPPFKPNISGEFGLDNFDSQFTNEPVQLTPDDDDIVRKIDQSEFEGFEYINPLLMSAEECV
The assay can be described thus: Inhibition of PKCiota.

Sequence of Serine/threonine-protein kinase pim-2 (Q9P1W9 whole entry): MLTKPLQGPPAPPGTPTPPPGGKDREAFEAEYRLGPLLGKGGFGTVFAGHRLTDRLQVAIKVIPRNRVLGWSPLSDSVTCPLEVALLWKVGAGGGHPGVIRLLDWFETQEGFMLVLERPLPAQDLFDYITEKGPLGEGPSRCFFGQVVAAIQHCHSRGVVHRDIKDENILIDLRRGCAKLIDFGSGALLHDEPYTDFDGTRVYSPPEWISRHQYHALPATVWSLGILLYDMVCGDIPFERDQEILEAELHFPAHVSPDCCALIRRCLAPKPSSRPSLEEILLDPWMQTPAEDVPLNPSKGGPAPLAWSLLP
Sequence of Serine/threonine-protein kinase pim-1 (P11309 whole entry): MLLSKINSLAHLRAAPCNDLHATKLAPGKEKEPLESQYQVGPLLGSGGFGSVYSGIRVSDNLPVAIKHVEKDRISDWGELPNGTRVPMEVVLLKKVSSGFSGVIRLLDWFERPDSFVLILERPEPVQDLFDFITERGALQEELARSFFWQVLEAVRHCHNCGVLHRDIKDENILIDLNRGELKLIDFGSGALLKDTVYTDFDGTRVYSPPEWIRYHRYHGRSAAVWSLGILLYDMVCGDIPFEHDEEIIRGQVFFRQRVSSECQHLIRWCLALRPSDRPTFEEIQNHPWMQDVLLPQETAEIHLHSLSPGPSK
Sequence of Serine/threonine-protein kinase MARK1 (Q9P0L2 whole entry): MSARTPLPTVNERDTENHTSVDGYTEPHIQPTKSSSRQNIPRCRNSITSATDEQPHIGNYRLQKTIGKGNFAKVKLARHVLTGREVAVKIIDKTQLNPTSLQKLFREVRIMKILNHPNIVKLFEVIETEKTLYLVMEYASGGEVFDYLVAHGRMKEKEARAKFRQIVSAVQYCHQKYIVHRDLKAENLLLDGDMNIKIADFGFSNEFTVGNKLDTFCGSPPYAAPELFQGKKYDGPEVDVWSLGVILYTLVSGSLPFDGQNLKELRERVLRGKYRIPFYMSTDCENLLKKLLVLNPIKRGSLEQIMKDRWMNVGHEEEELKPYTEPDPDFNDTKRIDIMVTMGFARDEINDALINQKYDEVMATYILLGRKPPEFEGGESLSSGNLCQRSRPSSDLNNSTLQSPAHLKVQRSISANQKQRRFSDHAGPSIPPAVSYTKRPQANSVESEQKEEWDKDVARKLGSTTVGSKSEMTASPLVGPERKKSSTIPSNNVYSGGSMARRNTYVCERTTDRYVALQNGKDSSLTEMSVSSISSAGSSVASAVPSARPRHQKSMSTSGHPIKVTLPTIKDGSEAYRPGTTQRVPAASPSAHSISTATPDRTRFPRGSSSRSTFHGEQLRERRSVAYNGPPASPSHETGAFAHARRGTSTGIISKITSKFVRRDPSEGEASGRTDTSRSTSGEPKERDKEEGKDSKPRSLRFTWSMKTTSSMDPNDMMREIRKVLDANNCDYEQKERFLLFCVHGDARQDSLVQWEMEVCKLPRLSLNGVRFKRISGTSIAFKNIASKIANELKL

Take `CCn1c2cc(Cl)c(F)cc2c(=O)c2c(=O)on(CCOCc3ccccc3)c21`: the results for the Ki in assay [1] and in assay [2] were 4890 nM and greater than 1420 nM, respectively.

Take `CCn1c2cc(Cl)c(F)cc2c(=O)c2c(=O)on(Cc3cccc(O)c3)c21`: the inhibitory constant (Ki) was 271 nM in [1] and greater than 1420 nM in [2].

Turning to `CCCCn1c2cc(Cl)c(F)cc2c(=O)c2c(=O)o[nH]c21`, the Ki in [1] was 15 nM; in assay [2] it was 165 nM.

As for `CC(C)n1c2cc(Cl)c(F)cc2c(=O)c2c(=O)o[nH]c21`, the inhibition constant (Ki) in [1] amounted to 12.3 nM; in assay [2] it was 62.8 nM.

Turning to `CCn1c2cc(Cl)c(F)cc2c(=O)c2c(=O)on(Cc3ccccc3)c21`, the results for the inhibition constant Ki in assay [1] and in [2] were 1270 nM and greater than 1420 nM, respectively.

Consider `CCn1c2cc(Cl)c(O)cc2c(=O)c2c(=O)o[nH]c21`, for which the Ki in assay [2] is 43.5 nM; in assay [3], 1730 nM; in assay [4], greater than 6880 nM; in [5] it was greater than 6670 nM; in [6], 1070 nM; in assay [7] it was greater than 8440 nM. The values for the Ki in assay [8] and in [9] were greater than 7500 nM and greater than 8330 nM, respectively.

Take `CCn1c2cc(Cl)c(OC)cc2c(=O)c2c(=O)o[nH]c21`: the Ki in assay [1] was 2700 nM; in assay [2], greater than 1420 nM.

Consider `O=c1o[nH]c2c1c(=O)c1cc(F)c(Cl)cc1n2Cc1ccccc1`, for which the Ki amounted to 36.5 nM in assay [1] and 558 nM in [2].

On to `CCn1c2cc(Cl)c(F)cc2c(=O)c2c(=O)on(CCO)c21`, for which the inhibition constant Ki was 1160 nM in [1] and greater than 1420 nM in assay [2].

The term Ki denotes the equilibrium dissociation constant of an inhibitor or competing ligand from its target.
